20 compounds from US10494332B2, “Protein tyrosine phosphatases or SHP2 inhibitors and uses thereof” (Indiana University Research and Technology Corporation, priority 2015, dated 2019) can be followed below.

What is called IC50 is the point on the concentration scale where inhibition reaches its midpoint.

Several values for one entry are separate records, joined by “and”; a condition that tells them apart may be missing. Equal entries are not always repeated. Where two headings read alike, the source gives them in different places. Some results are limits rather than exact numbers.

For one assay, the target named is SHP1 (Homo sapiens, UniProt P29350). The experiment in a line: PTP inhibition assay (pNPP). It counts as biochemical. To be noted: pNPP at Km, pH 7.0, 25° C.
The target of another assay is PTPμ (Homo sapiens, UniProt P28827). Put plainly: PTP inhibition assay (pNPP).
The next assay addresses T1, LYP (Homo sapiens, UniProt Q9Y2R2).
T1 sequence (Q9Y2R2 1-807): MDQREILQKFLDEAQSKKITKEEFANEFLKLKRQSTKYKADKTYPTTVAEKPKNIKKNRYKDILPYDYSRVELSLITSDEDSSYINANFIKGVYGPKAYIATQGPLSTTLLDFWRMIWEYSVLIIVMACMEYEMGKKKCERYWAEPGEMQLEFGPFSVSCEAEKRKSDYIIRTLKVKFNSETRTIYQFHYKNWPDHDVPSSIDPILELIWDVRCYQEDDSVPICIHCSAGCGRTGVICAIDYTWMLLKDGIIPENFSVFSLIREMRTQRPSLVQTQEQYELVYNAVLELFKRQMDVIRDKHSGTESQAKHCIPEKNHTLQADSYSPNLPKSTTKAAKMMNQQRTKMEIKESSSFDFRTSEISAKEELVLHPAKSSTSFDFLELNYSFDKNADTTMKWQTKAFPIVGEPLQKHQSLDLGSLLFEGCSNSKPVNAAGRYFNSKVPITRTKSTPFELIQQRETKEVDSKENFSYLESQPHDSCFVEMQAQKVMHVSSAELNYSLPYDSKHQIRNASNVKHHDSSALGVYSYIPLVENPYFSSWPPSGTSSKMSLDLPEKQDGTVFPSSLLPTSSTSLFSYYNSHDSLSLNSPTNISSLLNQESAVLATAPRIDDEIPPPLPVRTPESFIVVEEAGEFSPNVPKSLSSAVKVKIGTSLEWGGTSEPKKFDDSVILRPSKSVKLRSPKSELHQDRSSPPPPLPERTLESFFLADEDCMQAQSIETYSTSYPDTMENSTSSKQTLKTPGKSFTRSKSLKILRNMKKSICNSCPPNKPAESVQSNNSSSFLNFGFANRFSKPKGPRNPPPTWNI
Put plainly: PTP inhibition assay (pNPP). The note with it: pNPP at Km, pH 7.0, 25° C. Type of assay: biochemical.

Another assay has as its target T2, PP5 (Homo sapiens, UniProt P53041).
T2 sequence (P53041 1-499): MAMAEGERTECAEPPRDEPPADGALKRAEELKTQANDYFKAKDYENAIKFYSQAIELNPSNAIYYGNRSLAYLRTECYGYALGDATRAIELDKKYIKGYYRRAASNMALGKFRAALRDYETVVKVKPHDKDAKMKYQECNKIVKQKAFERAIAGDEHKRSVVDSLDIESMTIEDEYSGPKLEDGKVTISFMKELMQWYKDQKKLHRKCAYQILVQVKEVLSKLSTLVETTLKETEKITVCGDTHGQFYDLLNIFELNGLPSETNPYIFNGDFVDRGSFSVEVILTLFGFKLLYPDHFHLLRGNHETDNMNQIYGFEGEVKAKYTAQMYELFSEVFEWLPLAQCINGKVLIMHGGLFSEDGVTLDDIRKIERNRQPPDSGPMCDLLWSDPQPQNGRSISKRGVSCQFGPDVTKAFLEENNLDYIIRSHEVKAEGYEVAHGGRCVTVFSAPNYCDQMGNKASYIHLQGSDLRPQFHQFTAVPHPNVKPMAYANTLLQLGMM
Put plainly: Phosphatase inhibition assay (pNPP).

For the next assay, the target named is T3, STEP (Homo sapiens, UniProt P54829).
T3 sequence (P54829 1-565): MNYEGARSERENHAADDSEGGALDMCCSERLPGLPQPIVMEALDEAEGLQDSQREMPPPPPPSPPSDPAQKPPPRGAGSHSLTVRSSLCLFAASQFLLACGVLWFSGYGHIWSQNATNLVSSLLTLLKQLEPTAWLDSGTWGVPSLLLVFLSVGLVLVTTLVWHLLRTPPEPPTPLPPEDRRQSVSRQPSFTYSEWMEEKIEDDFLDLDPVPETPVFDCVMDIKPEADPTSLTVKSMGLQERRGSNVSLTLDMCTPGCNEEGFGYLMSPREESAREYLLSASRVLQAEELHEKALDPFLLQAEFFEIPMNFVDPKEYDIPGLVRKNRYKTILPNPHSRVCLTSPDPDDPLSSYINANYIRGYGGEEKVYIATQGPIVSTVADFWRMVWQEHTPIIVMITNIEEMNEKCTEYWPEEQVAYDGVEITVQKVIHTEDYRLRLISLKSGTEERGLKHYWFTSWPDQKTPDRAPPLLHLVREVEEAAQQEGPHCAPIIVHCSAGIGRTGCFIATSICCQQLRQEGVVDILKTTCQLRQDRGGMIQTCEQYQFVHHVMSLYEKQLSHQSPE
Put plainly: PTP inhibition assay (pNPP). The note with it: pNPP at Km, pH 7.0, 25° C. Type of assay: biochemical.

A further assay has as its target T4, PTPH1 (Homo sapiens, UniProt P26045).
T4 sequence (P26045 1-913): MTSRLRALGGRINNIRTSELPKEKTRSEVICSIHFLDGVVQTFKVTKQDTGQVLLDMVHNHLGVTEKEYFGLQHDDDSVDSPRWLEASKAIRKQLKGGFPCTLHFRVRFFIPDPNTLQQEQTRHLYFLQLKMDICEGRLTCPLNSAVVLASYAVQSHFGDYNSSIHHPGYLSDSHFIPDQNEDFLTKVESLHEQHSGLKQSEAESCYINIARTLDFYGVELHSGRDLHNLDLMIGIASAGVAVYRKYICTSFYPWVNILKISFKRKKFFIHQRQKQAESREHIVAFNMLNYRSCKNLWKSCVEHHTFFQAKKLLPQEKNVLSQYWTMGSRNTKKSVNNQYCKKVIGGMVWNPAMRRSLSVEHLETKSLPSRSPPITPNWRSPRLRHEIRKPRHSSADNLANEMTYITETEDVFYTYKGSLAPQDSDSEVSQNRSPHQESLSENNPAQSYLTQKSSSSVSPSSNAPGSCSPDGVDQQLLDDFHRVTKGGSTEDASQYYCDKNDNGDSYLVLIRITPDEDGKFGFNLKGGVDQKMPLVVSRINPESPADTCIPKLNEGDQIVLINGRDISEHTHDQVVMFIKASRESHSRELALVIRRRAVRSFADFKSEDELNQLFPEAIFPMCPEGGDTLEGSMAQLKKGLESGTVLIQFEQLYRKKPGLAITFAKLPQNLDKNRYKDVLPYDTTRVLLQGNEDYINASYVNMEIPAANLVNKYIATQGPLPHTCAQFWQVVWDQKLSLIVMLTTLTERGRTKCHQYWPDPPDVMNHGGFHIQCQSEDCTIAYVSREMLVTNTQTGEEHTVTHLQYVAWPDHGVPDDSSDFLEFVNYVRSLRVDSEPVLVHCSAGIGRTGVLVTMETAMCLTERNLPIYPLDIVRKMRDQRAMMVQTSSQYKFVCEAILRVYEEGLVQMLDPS
Put plainly: PTP inhibition assay (pNPP). Type of assay: biochemical.

Chain of PTPμ (P28827 21-1452): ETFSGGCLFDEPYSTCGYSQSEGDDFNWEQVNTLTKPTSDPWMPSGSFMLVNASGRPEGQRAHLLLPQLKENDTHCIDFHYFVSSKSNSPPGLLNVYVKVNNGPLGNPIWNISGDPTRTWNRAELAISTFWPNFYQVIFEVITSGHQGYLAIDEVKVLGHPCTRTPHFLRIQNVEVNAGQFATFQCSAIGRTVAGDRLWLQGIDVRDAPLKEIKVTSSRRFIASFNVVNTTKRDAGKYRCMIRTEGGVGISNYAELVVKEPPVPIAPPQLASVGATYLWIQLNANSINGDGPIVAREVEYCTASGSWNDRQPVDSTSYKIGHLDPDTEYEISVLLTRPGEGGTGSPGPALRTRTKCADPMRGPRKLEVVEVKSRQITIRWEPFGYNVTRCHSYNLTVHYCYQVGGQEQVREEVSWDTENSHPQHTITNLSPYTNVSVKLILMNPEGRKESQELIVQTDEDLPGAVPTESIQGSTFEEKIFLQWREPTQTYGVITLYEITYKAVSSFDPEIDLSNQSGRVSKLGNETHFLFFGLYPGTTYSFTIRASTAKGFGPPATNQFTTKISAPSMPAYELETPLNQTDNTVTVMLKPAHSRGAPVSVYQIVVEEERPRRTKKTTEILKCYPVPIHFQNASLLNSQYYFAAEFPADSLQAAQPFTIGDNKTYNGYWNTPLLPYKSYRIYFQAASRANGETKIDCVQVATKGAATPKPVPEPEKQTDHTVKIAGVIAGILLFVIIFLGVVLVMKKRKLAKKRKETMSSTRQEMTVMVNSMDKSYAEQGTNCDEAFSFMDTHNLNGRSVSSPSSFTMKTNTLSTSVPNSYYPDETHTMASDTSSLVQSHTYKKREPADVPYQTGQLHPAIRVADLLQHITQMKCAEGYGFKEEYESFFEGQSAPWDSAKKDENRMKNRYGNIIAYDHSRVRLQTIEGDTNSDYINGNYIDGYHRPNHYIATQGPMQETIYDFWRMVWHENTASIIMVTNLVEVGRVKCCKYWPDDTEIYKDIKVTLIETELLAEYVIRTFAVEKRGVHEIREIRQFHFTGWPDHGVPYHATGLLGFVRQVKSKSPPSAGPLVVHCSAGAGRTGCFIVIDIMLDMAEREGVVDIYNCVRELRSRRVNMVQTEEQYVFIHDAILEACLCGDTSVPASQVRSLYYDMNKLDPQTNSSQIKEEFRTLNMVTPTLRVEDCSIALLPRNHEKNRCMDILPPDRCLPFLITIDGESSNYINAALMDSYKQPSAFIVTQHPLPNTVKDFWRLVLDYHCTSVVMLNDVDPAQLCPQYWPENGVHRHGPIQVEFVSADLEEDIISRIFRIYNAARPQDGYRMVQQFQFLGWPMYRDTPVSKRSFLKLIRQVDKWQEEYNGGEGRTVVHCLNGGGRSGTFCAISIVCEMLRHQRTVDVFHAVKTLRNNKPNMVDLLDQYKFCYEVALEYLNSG
Chain of SHP1 (P29350 whole entry): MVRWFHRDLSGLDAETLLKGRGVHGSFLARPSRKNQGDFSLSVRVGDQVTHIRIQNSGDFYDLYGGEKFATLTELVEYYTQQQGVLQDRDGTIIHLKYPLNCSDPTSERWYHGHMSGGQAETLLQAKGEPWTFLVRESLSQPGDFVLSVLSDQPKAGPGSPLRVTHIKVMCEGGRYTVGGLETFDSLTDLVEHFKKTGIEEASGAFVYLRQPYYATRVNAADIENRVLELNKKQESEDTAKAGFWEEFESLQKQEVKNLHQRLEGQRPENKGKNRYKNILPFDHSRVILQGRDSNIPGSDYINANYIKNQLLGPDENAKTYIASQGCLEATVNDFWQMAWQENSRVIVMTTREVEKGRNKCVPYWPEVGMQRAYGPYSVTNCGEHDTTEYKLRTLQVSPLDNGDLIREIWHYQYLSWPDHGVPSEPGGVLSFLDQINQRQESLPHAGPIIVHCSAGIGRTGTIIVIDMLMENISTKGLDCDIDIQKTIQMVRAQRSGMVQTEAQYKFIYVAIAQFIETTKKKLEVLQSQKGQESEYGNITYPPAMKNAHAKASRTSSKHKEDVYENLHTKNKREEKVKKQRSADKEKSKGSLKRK

As for `Cc1c(Br)cc(NC(=O)CS(=O)(=O)O)cc1Br`, the IC50 against SHP1, against PTPμ, against LYP, against PP5 and on STEP (IC50 STEP) was greater than 100 µM in each case.
For `O=C(CS(=O)(=O)O)Nc1ccc2nc(C(F)(F)F)[nH]c2c1`, the IC50 against SHP1, against PTPμ, at LYP, on PP5, at STEP (read-out: IC50 STEP) and against PTPH1 was greater than 100 µM in each case.
With `O=C(CS(=O)(=O)O)Nc1cnc2ccccc2c1`, the IC50 at SHP1, against PTPμ, against LYP, at PP5, on STEP (read-out: IC50 STEP) and on PTPH1 was greater than 100 µM throughout.
Consider `O=C(NCCNC(=O)C(c1ccccc1)S(=O)(=O)O)c1cccc(C(=O)c2ccccc2)c1` (centres unmarked) [Compound L319-02-A60], for which the IC50 against SHP1, against LYP and on STEP (read-out: IC50 STEP) was greater than 200 µM in each case.
As to `O=C(NCc1ccc(NC(=O)C(c2ccccc2)S(=O)(=O)O)cc1)c1ccccc1-c1ccc(C(F)(F)F)cc1` (centres unmarked) [Compound L319-05-A64], the figures for the IC50 on LYP and at STEP (read-out: IC50 STEP) were 62 µM and greater than 100 µM, respectively.
`CCCCc1ccc(NC(=O)C(=O)Nc2ccccc2NC(=O)C(c2ccccc2)S(=O)(=O)O)cc1` (centres unmarked) [Compound L319-21-M06]: the IC50 on SHP1, against LYP and on STEP (read-out: IC50 STEP) was greater than 50 µM throughout.
On to `O=C(Nc1cccc(OCc2ccccc2)c1)C(=O)Nc1ccccc1NC(=O)C(c1ccccc1)S(=O)(=O)O` (centres unmarked) [Compound L319-21-M52], for which the IC50 against SHP1, at LYP and on STEP (read-out: IC50 STEP) was greater than 50 µM in each case.
In the case of `Cc1c(Br)cc(NC(=O)C(c2ccccc2)S(=O)(=O)O)cc1Br` (centres unmarked) [Compound L319M34], the IC50 is 55.5 µM at SHP1 and greater than 200 µM on STEP (IC50 STEP).
Consider `O=C(Nc1ccc(OCc2ccccc2)c(Cl)c1)C(c1ccccc1)S(=O)(=O)O` (centres unmarked) [Compound L319M50], for which the half-inhibitory concentration (IC50) is 53.2 µM against SHP1, greater than 200 µM against LYP and greater than 200 µM on STEP (read-out: IC50 STEP).
Take `O=C(Nc1cccc(OCc2ccccc2)c1)C(c1ccccc1)S(=O)(=O)O` (centres unmarked) [Compound L319M52]: the IC50 at SHP1 was > 200 µM and 62.3 µM; on PTPμ, greater than 200 µM; against LYP, greater than 200 µM; against PP5, greater than 200 µM; on STEP (read-out: IC50 STEP) it was greater than 200 µM; against PTPH1 it was greater than 200 µM.
For `O=C(Nc1ccc2nc(C(F)(F)F)[nH]c2c1)C(c1ccccc1)S(=O)(=O)O` (centres unmarked) [Compound L319M54], the IC50 at SHP1, against PTPμ, against LYP, against PP5 and on STEP (read-out: IC50 STEP) was greater than 200 µM throughout.
Consider `O=C(Nc1ccc(N2CCOCC2)cc1)C(c1ccccc1)S(=O)(=O)O` (centres unmarked) [Compound L319M68], for which the IC50 at SHP1, against PTPμ, against LYP, on PP5 and at STEP (read-out: IC50 STEP) was greater than 200 µM in each case.
As for `O=C(Nc1cnc2ccccc2c1)C(c1ccccc1)S(=O)(=O)O` (centres unmarked) [Compound L319M88], the IC50 against SHP1, against PTPμ, against LYP, on PP5 and on STEP (read-out: IC50 STEP) was greater than 200 µM throughout.
For the compound `O=C(Nc1ccc(-c2ccccc2)cc1)C(c1ccccc1)S(=O)(=O)O` (centres unmarked) [Compound L319N08], the IC50 at SHP1 was 64.6 µM; on LYP, greater than 200 µM; at STEP (IC50 STEP) it was greater than 100 µM.
On to `O=C(Nc1nc2ccccc2s1)C(c1ccccc1)S(=O)(=O)O` (centres unmarked) [Compound L319N15], for which the IC50 against SHP1 was > 200 µM and 59.6 µM; against PTPμ it was greater than 200 µM; on LYP it was > 200 µM and 190 µM; on PP5 it was greater than 200 µM; at STEP (read-out: IC50 STEP) it was greater than 200 µM.
In the case of `O=C(C(c1ccccc1)S(=O)(=O)O)N1CCC(Cc2ccccc2)CC1` (centres unmarked) [Compound L319N46], the IC50 against SHP1, at PTPμ, at LYP, on PP5, at STEP (read-out: IC50 STEP) and against PTPH1 was greater than 200 µM throughout.
For `O=C(C(c1ccccc1)S(=O)(=O)O)N1CCC(c2ccc(Cl)c(Cl)c2)CC1` (centres unmarked) [Compound L319N47], the IC50 at SHP1 was 66 µM; at PTPμ, greater than 200 µM; against LYP, 42 µM; at PP5 it was greater than 200 µM; at STEP (read-out: IC50 STEP), greater than 200 µM; against PTPH1, 30 µM.
With `O=C(C(c1ccccc1)S(=O)(=O)O)N1CCCC2CCCCC21` (centres unmarked) [Compound L319N53], the IC50 against SHP1, against PTPμ, against LYP, on PP5, on STEP (read-out: IC50 STEP) and at PTPH1 was greater than 200 µM each time.
On to `O=C(CS(=O)(=O)O)Nc1nc2ccc([N+](=O)[O-])cc2s1` [Compound L335N15-07], for which the IC50 against SHP1, at PTPμ, against LYP, on PP5, at STEP (read-out: IC50 STEP) and at PTPH1 was greater than 100 µM each time.
`O=C(CS(=O)(=O)O)Nc1nc2ccccc2s1` [Compound L335N15]: the IC50 against SHP1, against PTPμ, at LYP, on PP5, at STEP (read-out: IC50 STEP) and against PTPH1 was greater than 100 µM each time.
